Earlier results on one molecule are cited in patent US8524202B2, “Tooth whitening compositions and methods” (priority 2008, dated 2013).

The conditions of this data set: at six months; concentrations 16%-18% carbamide peroxide; Brunton et al., 2004.

Consider `NC(N)=O.OO` [carbamide peroxide], for which the “rebound, patients” value is 40%.
